Reference: article PMC6837340, “Streptococcal phosphotransferase system imports unsaturated hyaluronan disaccharide derived from host extracellular matrices” (PLoS ONE, 2019)

What was measured:
[1] = target: T1, GAG-PTS (EIIABCD; phosphotransferase system for import of unsaturated hyaluronan disaccharide) (Streptococcus agalactiae, UniProt Q8DXF2+Q8DXF3); assay: PTS assay: pyruvate from phosphoenolpyruvate, lactate dehydrogenase-coupled NADH oxidation at […] nm, toluene-treated cells; assay type: cell-based; conditions: 10 mM sugar, 5 mM phosphoenolpyruvate, 5 mM MgCl2, 10 mM NaF, 0.1 M potassium phosphate pH 7.5, 37°C; EIIB-EIIC-EIID deletion mutant as control
T1 construct: gene SAG1899; native complex in toluene-permeabilized wild-type S. agalactiae cells; endogenous EI and HPr also required; EIIA dimer in crystal, 144 residues; with PTS mannose family transporter subunit IIA (EIIA)
T1 sequence (Q8DXF1 entry or part of it, one chain of several, further chain): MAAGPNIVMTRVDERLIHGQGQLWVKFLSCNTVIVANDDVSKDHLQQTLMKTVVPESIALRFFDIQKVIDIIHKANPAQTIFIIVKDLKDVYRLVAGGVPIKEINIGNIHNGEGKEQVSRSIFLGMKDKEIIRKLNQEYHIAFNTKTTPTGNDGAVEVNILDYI
T1 sequence (Q8DXF2 entry or part of it, one chain of several): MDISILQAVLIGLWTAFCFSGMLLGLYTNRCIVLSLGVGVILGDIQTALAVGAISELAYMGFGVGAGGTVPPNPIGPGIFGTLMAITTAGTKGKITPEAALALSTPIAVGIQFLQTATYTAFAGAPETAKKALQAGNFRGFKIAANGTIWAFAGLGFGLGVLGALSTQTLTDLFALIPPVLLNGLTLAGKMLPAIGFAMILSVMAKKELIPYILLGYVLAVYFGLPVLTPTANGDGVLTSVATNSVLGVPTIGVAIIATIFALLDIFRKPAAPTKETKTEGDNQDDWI
T1 sequence (Q8DXF3 entry or part of it, one chain of several): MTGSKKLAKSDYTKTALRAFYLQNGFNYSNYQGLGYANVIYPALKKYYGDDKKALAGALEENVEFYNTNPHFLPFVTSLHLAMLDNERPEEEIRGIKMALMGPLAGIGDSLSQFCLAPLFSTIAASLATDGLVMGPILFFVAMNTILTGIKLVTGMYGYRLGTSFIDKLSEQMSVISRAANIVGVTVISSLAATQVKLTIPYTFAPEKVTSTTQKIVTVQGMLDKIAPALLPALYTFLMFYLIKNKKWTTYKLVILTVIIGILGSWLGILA

[2] = target: the molecule itself; assay: crystal structure; sitting drop vapor diffusion, 20% PEG 3,350, 0.2 M sodium thiocyanate pH 6.9, 20°C; space group P1, six molecules in the asymmetric unit; biological unit judged a dimer with PISA software

| Molecule | PTS assay: pyruvate from phosphoenolpyruvate, lactate dehydrogenase-coupled NADH [1] | stoichiometry N [2] |
| --- | --- | --- |
| CC(=O)N[C@H]1C(O)O[C@H](CO)[C@@H](O)[C@@H]1O[C@@H]1OC(C(=O)O)=C[C@H](O)[C@H]1O (some centres unmarked) [ΔHA, unsaturated hyaluronan disaccharide] | S. agalactiae imports unsaturated hyaluronan disaccharide using the GAG-PTS encoded in the GAG genetic cluster | – |
| Streptococcus agalactiae GAG-PTS EIIA^ΔHA (EIIA for unsaturated hyaluronan disaccharide) (natural protein, PTS EIIA component of the GAG genetic cluster, gene gbs1890, Streptococcus agalactiae (gbs = strain NEM316); 144 residues (Met1-Ile144); Leu131-Ile144 not seen in the crystal structure; Cloned between NdeI and XhoI of pET21b with a reverse primer without a stop codon, so a C-terminal vector-derived His tag is likely (surmised); No PDB id is printed for the structure solved here; also called …) MIKIIIVAHGNFPDGILSSLELIAGHQEYVVGINFIAGMSSNDVRVALQREVIDFKEILVLTDLLGGTPFNVSSALSVEYTDKKIKVLSGLNLSMLMEAVLSRTMFEHVDDLVDKVITSSHEGIVDFSTCLATQTAEATFEGGI | – | 2 |
